{
  "source": "ChEMBL document CHEMBL2010689",
  "about": "(J Med Chem, 2012)",
  "key": {"[1]": {"assay": "Antitumor activity against human U251MG cells xenografted in athymic nude mouse assessed as complete tumor regression at 3 mg/kg, po bid", "type": "functional, U-251"}, "[2]": {"assay": "Antitumor activity against human U251MG cells xenografted in athymic nude mouse assessed as partial tumor regression at 3 mg/kg, po bid", "type": "functional, U-251"}, "[3]": {"target": "T1, Vascular endothelial growth factor receptor 2 (Homo sapiens, UniProt P35968)", "T1 sequence (P35968 whole entry)": "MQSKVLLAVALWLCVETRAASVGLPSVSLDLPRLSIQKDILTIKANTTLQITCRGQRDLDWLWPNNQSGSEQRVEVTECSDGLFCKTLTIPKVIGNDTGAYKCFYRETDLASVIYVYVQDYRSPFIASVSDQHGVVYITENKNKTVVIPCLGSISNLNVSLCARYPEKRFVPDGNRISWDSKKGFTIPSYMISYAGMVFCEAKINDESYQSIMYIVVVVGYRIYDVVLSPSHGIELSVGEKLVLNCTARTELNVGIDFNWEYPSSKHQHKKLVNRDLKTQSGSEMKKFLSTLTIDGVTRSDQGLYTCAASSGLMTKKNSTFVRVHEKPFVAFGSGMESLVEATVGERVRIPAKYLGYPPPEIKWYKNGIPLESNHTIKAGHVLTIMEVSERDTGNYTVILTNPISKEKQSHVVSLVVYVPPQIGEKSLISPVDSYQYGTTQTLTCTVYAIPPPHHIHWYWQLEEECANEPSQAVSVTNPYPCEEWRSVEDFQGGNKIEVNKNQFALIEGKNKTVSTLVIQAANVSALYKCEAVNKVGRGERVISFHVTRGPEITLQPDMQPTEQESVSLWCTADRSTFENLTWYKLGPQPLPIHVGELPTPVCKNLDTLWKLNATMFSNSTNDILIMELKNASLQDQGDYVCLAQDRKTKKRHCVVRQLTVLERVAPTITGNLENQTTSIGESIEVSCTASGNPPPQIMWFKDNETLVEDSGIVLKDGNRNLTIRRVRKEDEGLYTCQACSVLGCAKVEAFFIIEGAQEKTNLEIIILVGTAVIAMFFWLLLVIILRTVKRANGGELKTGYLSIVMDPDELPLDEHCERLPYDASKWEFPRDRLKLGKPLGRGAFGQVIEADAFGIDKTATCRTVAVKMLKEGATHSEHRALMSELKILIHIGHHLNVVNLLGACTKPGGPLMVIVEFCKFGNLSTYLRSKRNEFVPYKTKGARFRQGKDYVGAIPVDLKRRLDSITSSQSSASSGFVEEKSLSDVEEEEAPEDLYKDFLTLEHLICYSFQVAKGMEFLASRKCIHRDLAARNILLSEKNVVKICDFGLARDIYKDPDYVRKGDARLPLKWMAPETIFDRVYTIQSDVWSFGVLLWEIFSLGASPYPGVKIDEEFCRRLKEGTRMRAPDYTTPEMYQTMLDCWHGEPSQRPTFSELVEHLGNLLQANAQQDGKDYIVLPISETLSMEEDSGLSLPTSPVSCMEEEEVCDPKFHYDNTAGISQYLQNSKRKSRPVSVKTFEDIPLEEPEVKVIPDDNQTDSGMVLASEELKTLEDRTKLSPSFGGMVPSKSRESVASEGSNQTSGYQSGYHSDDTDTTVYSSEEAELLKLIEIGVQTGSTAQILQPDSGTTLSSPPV"}, "Adenosine receptor A2a": {"target": "Adenosine receptor A2a (Homo sapiens, UniProt P29274)", "sequence (P29274 whole entry)": "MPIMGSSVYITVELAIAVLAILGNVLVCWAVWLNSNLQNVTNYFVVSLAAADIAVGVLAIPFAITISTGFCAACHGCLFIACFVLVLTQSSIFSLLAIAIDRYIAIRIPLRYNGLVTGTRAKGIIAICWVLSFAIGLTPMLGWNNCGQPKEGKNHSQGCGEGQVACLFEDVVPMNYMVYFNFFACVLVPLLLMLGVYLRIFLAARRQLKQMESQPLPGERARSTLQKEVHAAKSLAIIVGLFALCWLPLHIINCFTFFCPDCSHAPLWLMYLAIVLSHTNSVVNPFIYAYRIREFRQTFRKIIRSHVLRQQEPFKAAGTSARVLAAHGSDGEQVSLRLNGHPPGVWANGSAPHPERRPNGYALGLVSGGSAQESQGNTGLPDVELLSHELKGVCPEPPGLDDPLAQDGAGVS", "assay": "Inhibition of adenosine A2A receptor at 10 uM"}, "[4]": {"target": "Type-1 angiotensin II receptor (Homo sapiens) (UniProt P30556)", "sequence (P30556 whole entry)": "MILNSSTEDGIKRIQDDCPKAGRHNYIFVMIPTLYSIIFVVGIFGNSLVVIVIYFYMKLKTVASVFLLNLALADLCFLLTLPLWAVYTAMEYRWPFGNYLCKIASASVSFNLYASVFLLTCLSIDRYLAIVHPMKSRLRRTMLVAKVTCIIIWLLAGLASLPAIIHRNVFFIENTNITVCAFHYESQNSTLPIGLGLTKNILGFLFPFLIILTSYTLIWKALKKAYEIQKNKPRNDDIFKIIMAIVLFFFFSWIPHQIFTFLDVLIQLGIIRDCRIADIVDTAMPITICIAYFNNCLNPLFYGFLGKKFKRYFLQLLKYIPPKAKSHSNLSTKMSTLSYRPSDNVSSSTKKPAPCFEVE", "assay": "Inhibition of angiotensin AT1 at 10 uM"}, "A-375 [5]": {"tested_on": "A-375", "assay": "Antitumor activity against human A375 cells xenografted in athymic nude mouse assessed as tumor growth inhibition at 3 mg/kg, po bid measured on day 29 relative to control", "type": "functional", "settings": "A-375, 696 h, read-out: GI"}, "[6]": {"assay": "Antitumor activity against human U251MG cells xenografted in athymic nude mouse assessed as tumor growth inhibition at 1 mg/kg, po bid measured on day 29 relative to control", "type": "functional", "settings": "U-251, 696 h, read-out: GI"}, "[7]": {"assay": "Metabolic stability in rat liver S9 fraction assessed as compound remaining after 2 hrs", "type": "ADME, subcellular", "settings": "read-out: Stability"}, "[8]": {"target": "Platelet-derived growth factor receptor alpha (Homo sapiens, UniProt P16234)", "sequence (P16234 whole entry)": "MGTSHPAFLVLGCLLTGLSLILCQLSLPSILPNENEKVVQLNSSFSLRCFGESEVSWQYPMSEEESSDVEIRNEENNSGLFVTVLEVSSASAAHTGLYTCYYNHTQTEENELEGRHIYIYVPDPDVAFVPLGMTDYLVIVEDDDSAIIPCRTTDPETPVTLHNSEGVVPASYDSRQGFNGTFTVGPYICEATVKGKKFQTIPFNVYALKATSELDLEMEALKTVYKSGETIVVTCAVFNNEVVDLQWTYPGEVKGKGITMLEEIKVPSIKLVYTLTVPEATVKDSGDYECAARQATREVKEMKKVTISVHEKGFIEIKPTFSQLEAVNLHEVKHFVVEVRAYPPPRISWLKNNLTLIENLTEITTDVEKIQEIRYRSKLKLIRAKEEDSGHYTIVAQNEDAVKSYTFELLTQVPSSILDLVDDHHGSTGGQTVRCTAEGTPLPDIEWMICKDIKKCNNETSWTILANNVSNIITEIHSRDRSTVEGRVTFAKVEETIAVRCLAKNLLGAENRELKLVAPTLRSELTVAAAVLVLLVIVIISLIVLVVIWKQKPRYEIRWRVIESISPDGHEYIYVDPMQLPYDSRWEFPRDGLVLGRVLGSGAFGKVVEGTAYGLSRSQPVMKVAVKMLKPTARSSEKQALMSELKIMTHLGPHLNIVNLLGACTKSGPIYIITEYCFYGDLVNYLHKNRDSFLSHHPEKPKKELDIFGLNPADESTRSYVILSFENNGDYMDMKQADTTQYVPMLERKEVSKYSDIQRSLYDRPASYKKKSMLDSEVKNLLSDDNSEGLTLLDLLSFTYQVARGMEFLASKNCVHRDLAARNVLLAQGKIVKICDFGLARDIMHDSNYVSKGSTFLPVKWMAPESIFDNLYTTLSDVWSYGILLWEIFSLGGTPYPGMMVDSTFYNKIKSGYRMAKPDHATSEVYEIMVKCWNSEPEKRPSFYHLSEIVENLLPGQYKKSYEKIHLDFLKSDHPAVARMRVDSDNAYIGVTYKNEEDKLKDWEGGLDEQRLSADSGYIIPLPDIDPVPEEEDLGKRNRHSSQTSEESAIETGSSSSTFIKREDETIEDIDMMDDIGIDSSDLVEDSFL", "assay": "Inhibition of human PDGFRalpha using ATP as substrate"}, "[9]": {"assay": "Terminal half life in Sprague-Dawley rat at 0.8 mg/kg, iv", "type": "ADME, organism-based", "parameters": "dose 0.8 mg/kg, route intravenous", "settings": "in vivo, read-out: beta t1/2 (converted)"}, "[10]": {"assay": "Clearance in cynomolgus monkey at 0.5 mg/kg, iv", "type": "ADME, organism-based, Macaca fascicularis", "parameters": "dose 0.5 mg/kg, route intravenous", "settings": "in vivo"}, "Mus musculus [11]": {"tested_on": "Mus musculus", "assay": "Toxicity in athymic nude mouse bearing human A375 cells assessed as apparent toxicity at 0.1 to 10 mg/kg, po", "type": "organism-based, A-375", "parameters": "dose 0.1-10 mg/kg, route oral", "settings": "in vivo"}, "A-375 [12]": {"tested_on": "A-375", "assay": "Antitumor activity against human A375 cells xenografted in athymic nude mouse assessed as complete tumor regression at 0.3 mg/kg, po bid"}, "[13]": {"assay": "Antitumor activity against human U251MG cells xenografted in athymic nude mouse assessed as partial tumor regression at 1 mg/kg, po bid", "type": "functional, U-251"}, "[14]": {"assay": "Inhibition of PDGFR at 1 uM"}, "A-375 [15]": {"tested_on": "A-375", "assay": "Antitumor activity against human A375 cells xenografted in athymic nude mouse assessed as partial tumor regression at 0.3 mg/kg, po bid"}, "[16]": {"assay": "Half life in cynomolgus monkey at 3 mg/kg, po", "type": "ADME, organism-based, Macaca fascicularis", "parameters": "dose 3 mg/kg, route oral", "settings": "in vivo"}, "A-375 [17]": {"tested_on": "A-375", "assay": "Antitumor activity against human A375 cells xenografted in athymic nude mouse assessed as partial tumor regression at 1 mg/kg, po bid", "type": "functional"}, "HUVEC [18]": {"tested_on": "HUVEC", "assay": "Cytotoxicity against HUVEC", "type": "cell-based", "settings": "human"}, "[19]": {"assay": "Antitumor activity against human U251MG cells xenografted in athymic nude mouse assessed as tumor growth inhibition at 10 mg/kg, po bid measured on day 29 relative to control", "type": "functional", "settings": "U-251, 696 h, read-out: GI"}, "[20]": {"target": "Muscarinic acetylcholine receptor M4 (Homo sapiens, UniProt P08173)", "sequence (P08173 whole entry)": "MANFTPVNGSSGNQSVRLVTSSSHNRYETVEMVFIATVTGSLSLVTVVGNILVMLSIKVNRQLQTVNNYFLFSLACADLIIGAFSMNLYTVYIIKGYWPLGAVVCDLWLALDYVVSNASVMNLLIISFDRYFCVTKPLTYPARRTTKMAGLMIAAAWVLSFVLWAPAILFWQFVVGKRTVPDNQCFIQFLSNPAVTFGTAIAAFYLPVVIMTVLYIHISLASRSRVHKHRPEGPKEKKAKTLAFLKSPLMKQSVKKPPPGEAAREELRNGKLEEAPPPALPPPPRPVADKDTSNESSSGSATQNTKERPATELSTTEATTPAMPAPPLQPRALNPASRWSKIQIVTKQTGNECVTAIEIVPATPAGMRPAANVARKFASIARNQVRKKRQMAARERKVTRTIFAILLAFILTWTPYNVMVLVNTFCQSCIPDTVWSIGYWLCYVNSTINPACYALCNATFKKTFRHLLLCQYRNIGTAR", "assay": "Inhibition of muscarinic M4 receptor"}, "[21]": {"assay": "Inhibition of IRK at 1 uM"}, "[22]": {"assay": "Inhibition of JNK at 1 uM"}, "[23]": {"assay": "Antiangiogenic activity in HMVEC assessed as inhibition of FGF-induced proliferation", "type": "functional", "settings": "Homo sapiens"}, "[24]": {"assay": "Inhibition of Mek at 1 uM"}, "[25]": {"target": "T1, Vascular endothelial growth factor receptor 2", "remark": "listed apart in the source"}, "A-375 [26]": {"tested_on": "A-375", "assay": "Antitumor activity against human A375 cells xenografted in athymic nude mouse assessed as partial tumor regression at 10 mg/kg, po bid", "type": "functional"}, "Mus musculus [27]": {"tested_on": "Mus musculus", "assay": "Toxicity in athymic nude mouse bearing human U251MG cells assessed as morbidity at 1 to 30 mg/kg, po", "type": "organism-based, U-251", "parameters": "dose 1-30 mg/kg, route oral", "settings": "in vivo"}, "[28]": {"assay": "AUC in cynomolgus monkey at 3 mg/kg, po", "type": "ADME, organism-based, Macaca fascicularis", "parameters": "dose 3 mg/kg, route oral", "settings": "plasma"}, "P388 [29]": {"tested_on": "P388", "assay": "Antitumor activity against mouse P388 cells xenografted in DBA/2 mouse assessed as mean survival at 30 mg/kg, po bid for 7 days followed by readministeration after 7 days", "type": "functional"}, "HUVEC [30]": {"tested_on": "HUVEC", "assay": "Antiangiogenic activity in HUVEC assessed as inhibition of FGF-induced migration", "type": "functional, cell-based", "settings": "Homo sapiens"}, "HUVEC [31]": {"tested_on": "HUVEC", "assay": "Antiangiogenic activity in HUVEC assessed as inhibition of VEGF-induced migration", "type": "functional, cell-based", "settings": "Homo sapiens"}, "[32]": {"assay": "Antiangiogenic activity in BAEC assessed as inhibition of VEGF-induced survival", "type": "functional, Bos taurus"}, "P388 [33]": {"tested_on": "P388", "assay": "Antitumor activity against mouse P388 cells xenografted in DBA/2 mouse assessed as mean survival at 30 mg/kg, po qd for 7 days followed by readministeration"}, "[34]": {"assay": "Antitumor activity against human U251MG cells xenografted in athymic nude mouse assessed as tumor growth inhibition at 3 mg/kg, po bid measured on day 29 relative to control", "type": "functional", "settings": "U-251, 696 h, read-out: GI"}, "[35]": {"assay": "AUC in Sprague-Dawley rat at 5 mg/kg, po", "type": "ADME, organism-based", "parameters": "dose 5 mg/kg, route oral", "settings": "plasma"}},
  "note": "pEC50, pIC50, pKi: −log10 of the molar value. Activity calls are given as the source filed them. The calls are words filed in the database; no cut-off is given here.",
  "data": [
    {"molecule": "CC(C)Cn1c2ccc(Nc3ncccn3)cc2c2c3c(c4c(c21)CCc1nn(C)cc1-4)C(=O)NC3", "note": "[CEP-11981]", "values": [
      {"measurement": "Activity", "setting": "[1]", "result": 0, "unit": "%"},
      {"measurement": "Activity", "setting": "[2]", "result": 0, "unit": "%"},
      {"measurement": "pIC50", "setting": "[3]", "result": 8.40},
      {"measurement": "inhibition", "setting": "Adenosine receptor A2a", "result": "> 80", "unit": "%"},
      {"measurement": "inhibition", "setting": "[4]", "result": "> 80", "unit": "%"},
      {"measurement": "inhibition in vivo at 3 mg/kg", "setting": "A-375 [5]", "result": 90, "unit": "%"},
      {"measurement": "inhibition in vivo at 1 mg/kg", "setting": "[6]", "result": 43, "unit": "%"},
      {"measurement": "remaining at 2 h", "setting": "[7]", "result": 65, "unit": "%"},
      {"measurement": "pIC50", "setting": "[8]", "result": 6.61},
      {"measurement": "half-life", "setting": "[9]", "result": 1.9, "unit": "h"},
      {"measurement": "clearance", "setting": "[10]", "result": 18, "unit": "mL/min/kg"},
      {"measurement": "Activity", "setting": "Mus musculus [11]", "result": "Non-toxic"},
      {"measurement": "Activity", "setting": "A-375 [12]", "result": 10, "unit": "%"},
      {"measurement": "Activity", "setting": "[13]", "result": 0, "unit": "%"},
      {"measurement": "inhibition", "setting": "[14]", "result": "Active"},
      {"measurement": "Activity", "setting": "A-375 [15]", "result": 20, "unit": "%"},
      {"measurement": "half-life", "setting": "[16]", "result": 2.4, "unit": "h"},
      {"measurement": "Activity", "setting": "A-375 [17]", "result": 10, "unit": "%"},
      {"measurement": "Activity", "setting": "HUVEC [18]", "result": "Non-toxic"},
      {"measurement": "inhibition in vivo at 10 mg/kg", "setting": "[19]", "result": 75, "unit": "%"},
      {"measurement": "pKi", "setting": "[20]", "result": 5.54},
      {"measurement": "inhibition", "setting": "[21]", "result": "Active"},
      {"measurement": "inhibition", "setting": "[22]", "result": "Active"},
      {"measurement": "pEC50", "setting": "[23]", "result": 8.10},
      {"measurement": "inhibition", "setting": "[24]", "result": "Active"},
      {"measurement": "pIC50", "setting": "[25]", "result": "> 8.00"},
      {"measurement": "Activity", "setting": "A-375 [26]", "result": 50, "unit": "%"},
      {"measurement": "Activity", "setting": "Mus musculus [27]", "result": "Non-toxic"},
      {"measurement": "AUC", "setting": "[28]", "result": 2480, "unit": "ng·h/mL"},
      {"measurement": "MSD", "setting": "P388 [29]", "result": 25, "unit": "days"},
      {"measurement": "pEC50", "setting": "HUVEC [30]", "result": 8.10},
      {"measurement": "pEC50", "setting": "HUVEC [31]", "result": 8.10},
      {"measurement": "pEC50", "setting": "[32]", "result": 8.10},
      {"measurement": "MSD", "setting": "P388 [33]", "result": 20.5, "unit": "days"},
      {"measurement": "inhibition in vivo at 3 mg/kg", "setting": "[34]", "result": 61, "unit": "%"},
      {"measurement": "AUC", "setting": "[35]", "result": 8560, "unit": "ng·h/mL"}
    ]}
  ]
}
